# Laboratory results published in the supplement of paper PMC10307832.
# How the values were obtained:
# Assay in all cases: relative viability (nuclei count vs DMSO), 5 days (fraction); higher = more cells survive
# [1] = system: NCI-H1666
# Procedure, shortened: (§1)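 A single step with final 0.05% Triton X-100, 1% formaldehyde and 1 ug/ml Hoechst fixed the cells and stained nuclei 5 days after treatment. Lung cancer cell lines in 1536-well plates had been treated by pin tool the day after seeding with one drug alone or a fixed anchor-drug dose plus five library-drug doses (not always all listed) in √10 steps, and nuclei were counted on 4× images. Relative viability is the ratio of nuclei in treated wells to nuclei in vehicle wells, taken as the median of duplicate plates.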
# [2] = system: NCI-H1650
# Procedure, shortened: as §1
# [3] = system: NCI-H2170
# Procedure, shortened: as §1
# [4] = system: SW 900
# Procedure, shortened: as §1
# [5] = system: EKVX
# Procedure, shortened: as §1
# [6] = system: PC-14
# Procedure, shortened: as §1
# [7] = system: HCC-366
# Procedure, shortened: as §1
# [8] = system: CAL-12T
# Procedure, shortened: as §1
# [9] = system: NCI-H727
# Procedure, shortened: as §1
# [10] = system: NCI-H441
# Procedure, shortened: as §1
# [11] = system: ABC-1
# Procedure, shortened: as §1
smiles,measurement,setting,value
Nc1ccn([C@@H]2O[C@H](CO)[C@@H](O)[C@@H]2O)c(=O)n1 [Cytarabine] + COc1cc2c(Oc3ccc(NC(=O)C4(C(=O)Nc5ccc(F)cc5)CC4)cc3F)ccnc2cc1OCCCN1CCOCC1 [Foretinib] (partner 0.25 µM),relative viability,[1]; first compound 0.005 µM,0.921
same,relative viability,[1]; first compound 0.01581 µM,0.869
same,relative viability,[1]; first compound 0.05 µM,0.799
same,relative viability,[1]; first compound 0.1581 µM,0.549
same,relative viability,[1]; first compound 0.5 µM,0.541
same,relative viability,[2]; first compound 0.005 µM,0.783
same,relative viability,[2]; first compound 0.01581 µM,0.973
same,relative viability,[2]; first compound 0.05 µM,0.73
same,relative viability,[2]; first compound 0.1581 µM,0.347
same,relative viability,[2]; first compound 0.5 µM,0.211
same,relative viability,[3]; first compound 0.005 µM,0.736
same,relative viability,[3]; first compound 0.01581 µM,0.458
same,relative viability,[3]; first compound 0.05 µM,0.672
same,relative viability,[3]; first compound 0.1581 µM,0.515
same,relative viability,[3]; first compound 0.5 µM,0.569
same,relative viability,[4]; first compound 0.005 µM,0.688
same,relative viability,[4]; first compound 0.01581 µM,0.569
same,relative viability,[4]; first compound 0.05 µM,0.329
same,relative viability,[4]; first compound 0.1581 µM,0.21
same,relative viability,[4]; first compound 0.5 µM,0.114
same,relative viability,[5]; first compound 0.005 µM,0.866
same,relative viability,[5]; first compound 0.01581 µM,0.594
same,relative viability,[5]; first compound 0.05 µM,0.622
same,relative viability,[5]; first compound 0.1581 µM,0.413
same,relative viability,[5]; first compound 0.5 µM,0.793
same,relative viability,[6]; first compound 0.005 µM,0.808
same,relative viability,[6]; first compound 0.01581 µM,0.914
same,relative viability,[6]; first compound 0.05 µM,1.02
same,relative viability,[6]; first compound 0.1581 µM,0.536
same,relative viability,[6]; first compound 0.5 µM,0.349
same,relative viability,[7]; first compound 0.005 µM,0.991
same,relative viability,[7]; first compound 0.01581 µM,0.831
same,relative viability,[7]; first compound 0.05 µM,0.584
same,relative viability,[7]; first compound 0.1581 µM,0.119
same,relative viability,[7]; first compound 0.5 µM,0.105
same,relative viability,[8]; first compound 0.005 µM,1.11
same,relative viability,[8]; first compound 0.01581 µM,1.18
same,relative viability,[8]; first compound 0.05 µM,1.05
same,relative viability,[8]; first compound 0.1581 µM,0.619
same,relative viability,[8]; first compound 0.5 µM,0.358
same,relative viability,[9]; first compound 0.005 µM,0.656
same,relative viability,[9]; first compound 0.01581 µM,0.681
same,relative viability,[9]; first compound 0.05 µM,0.597
same,relative viability,[9]; first compound 0.1581 µM,0.488
same,relative viability,[9]; first compound 0.5 µM,0.397
same,relative viability,[10]; first compound 0.005 µM,0.841
same,relative viability,[10]; first compound 0.01581 µM,0.856
same,relative viability,[10]; first compound 0.05 µM,1.05
same,relative viability,[10]; first compound 0.1581 µM,0.661
same,relative viability,[10]; first compound 0.5 µM,0.4
same,relative viability,[11]; first compound 0.005 µM,0.997
same,relative viability,[11]; first compound 0.01581 µM,1.14
same,relative viability,[11]; first compound 0.05 µM,1.06
same,relative viability,[11]; first compound 0.1581 µM,1.01
same,relative viability,[11]; first compound 0.5 µM,0.63
